Data: article PMC6358602, “The catalytic activity and secretion of zebrafish RNases are essential for their in vivo function in motor neurons and vasculature” (Scientific Reports, 2019)

Molecular target: T1, human angiogenin (hANG) (Homo sapiens, UniProt P03950)
T1 construct: gene ANG; [Met−1]-form
Experiment: fluorogenic RNase activity assay with and without NCI-65828 (Fig. 1E)
Type: biochemical

T1 sequence (P03950 25-147): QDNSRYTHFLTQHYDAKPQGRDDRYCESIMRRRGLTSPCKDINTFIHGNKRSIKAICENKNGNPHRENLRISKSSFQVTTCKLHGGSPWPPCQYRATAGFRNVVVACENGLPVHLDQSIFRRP

Nc1ccc(/N=N/c2ccc(-c3ccc(O)cc3)cc2)c2ccc(S(=O)(=O)O)cc12 [NCI-65828, 8-amino-5-(4′-hydroxybiphenyl-4-azo) napathlene-2-sulphate]
fluorogenic RNase activity assay with and without NCI-65828 (Fig. 1E): Enzyme kinetic data for Rnasel and hANG native protein and in the presence of NCI-65828.
